{"source": "paper PMC8957602", "about": "(Cancer chemotherapy and pharmacology, 2022)", "key": {"[1]": {"format": "in vivo, human", "details": "despite increased exposure with acid reducer co-treatment"}, "[2]": {"details": "ref [11], cited from earlier work"}, "[3]": {"details": "adults with FLT3 mutant AML, ref [26], cited from earlier work"}, "[4]": {"details": "described as weak acid drug; cited from earlier work"}, "[5]": {"tested_on": "human cytochrome CYP3A enzyme family", "details": "in vitro; ref unpublished in vitro data; cited from earlier work"}, "[6]": {"details": "ref [18], cited from earlier work"}, "[7]": {"details": "for AUC(0-t) / clearance: human, serum, oral; for AUC(0-t): 170 mg/m2, Steady state AUC0–24h, after 170 mg/m^2; for clearance: Mean clearance"}, "[8]": {"tested_on": "CYP3A4", "details": "ref [31]; cited from earlier work"}, "[9]": {"details": "before including any covariates"}, "[10]": {"details": "before inclusion of significant covariates"}, "[11]": {"details": "final model with covariates, Estimate (RSE%)"}, "[12]": {"details": "final model, standard deviation, Estimate (RSE%)"}, "[13]": {"details": "standard deviation, 500 bootstrap replicates"}}, "note": "Several values for one entry are separate records, joined by “and”; a condition that tells them apart may be missing. Equal entries are not always repeated. Where two headings read alike, the source gives them in different places."}
{"smiles": "CC1(COc2ccc3c(c2)ncn3-c2ccc3cccc(N4CCC(N)CC4)c3n2)COC1", "note": "[crenolanib]", "values": [{"measurement": "Tolerability of therapy", "setting": "[1]", "result": "well-tolerated"}, {"measurement": "Terminal half-life", "setting": "[2]; adults with solid tumors, 100–340 mg once daily, similar across all dose levels, [15]", "result": "14 ± 4.2", "unit": "h"}, {"measurement": "Mean (CV%) steady state AUC0–72h", "setting": "[2]; adults, 280 mg once daily (approx. 168 mg/m^2)", "result": "25,928 (92%) h·nM"}, {"measurement": "Tolerability", "setting": "[2]; adults, 100–340 mg once daily, [15]", "result": "well tolerated"}, {"measurement": "Mean clearance", "setting": "[3]; similar between day 1 and day 15", "result": "~ 60 L/h"}, {"measurement": "Drug accumulation after repeated doses", "setting": "[3]", "result": "minimal drug accumulation"}, {"measurement": "Terminal half-life", "setting": "[3]", "result": 6.8, "unit": "h"}, {"measurement": "pKa", "setting": "[4]", "result": "~ 9.8"}, {"measurement": "Metabolizing enzyme", "setting": "[5]", "result": "primarily metabolized by human cytochrome CYP3A enzyme family"}, {"measurement": "Maximum tolerated dosage", "setting": "[6]; oral once daily", "result": 170, "unit": "mg/m^2/d"}, {"measurement": "Association of higher AUC with toxicities", "setting": "[6]", "result": "not associated with more frequent or severe toxicities"}, {"measurement": "AR coefficient on V1/F βAR-V, non-parametric bootstraps mean", "setting": "[7]; 500 bootstrap replicates", "result": "−0.477"}, {"measurement": "Absorption lag time Tlag, non-parametric bootstraps mean", "setting": "[7]; 500 bootstrap replicates", "result": 0.547, "unit": "h"}, {"measurement": "Absorption rate constant ka, non-parametric bootstraps mean", "setting": "[7]; 500 bootstrap replicates", "result": 0.192, "unit": "h⁻¹"}, {"measurement": "Age coefficient on ka βAge, non-parametric bootstraps mean", "setting": "[7]; 500 bootstrap replicates", "result": "−0.0403"}, {"measurement": "Central clearance CL/F, non-parametric bootstraps mean", "setting": "[7]; 500 bootstrap replicates", "result": 42.0, "unit": "L/h"}, {"measurement": "Central volume V1/F, non-parametric bootstraps mean", "setting": "[7]; 500 bootstrap replicates", "result": 54.0, "unit": "L"}, {"measurement": "Peripheral volume V2/F, non-parametric bootstraps mean", "setting": "[7]; 500 bootstrap replicates", "result": 194, "unit": "L"}, {"measurement": "Residual proportional error, non-parametric bootstraps mean", "setting": "[7]; 500 bootstrap replicates", "result": 0.306}, {"measurement": "CL/F population estimate", "setting": "[7]; [9]", "result": 20.4, "unit": "L/h"}, {"measurement": "Q/F population estimate", "setting": "[7]; [9]", "result": 4.47, "unit": "L/h"}, {"measurement": "Tlag population estimate", "setting": "[7]; [9]", "result": 0.59, "unit": "h"}, {"measurement": "V1/F population estimate", "setting": "[7]; [9]", "result": 34.6, "unit": "L"}, {"measurement": "V2/F population estimate", "setting": "[7]; [9]", "result": 316, "unit": "L"}, {"measurement": "ka population estimate", "setting": "[7]; [9]", "result": 0.13, "unit": "h⁻¹"}, {"measurement": "Inter-occasion variability of CL/F", "setting": "[7]; [10]", "result": 0.568}, {"measurement": "Inter-occasion variability of V1/F", "setting": "[7]; [10]", "result": 0.956}, {"measurement": "Absorption lag time Tlag, population estimate", "setting": "[7]; [11]", "result": "0.525 (14.4) h"}, {"measurement": "Absorption rate constant ka, population estimate", "setting": "[7]; [11]", "result": "0.191 (10.4) /h"}, {"measurement": "Peripheral volume V2/F, population estimate", "setting": "[7]; final model, Estimate (RSE%)", "result": "412 (86.7) L"}, {"measurement": "Residual proportional error", "setting": "[7]; final model, Estimate (RSE%)", "result": "0.304 (4.44)"}, {"measurement": "AR coefficient on V1/F βAR-V", "setting": "[7]; final model, acid reducer concomitant treatment, Estimate (RSE%)", "result": "−0.516 (42.3)"}, {"measurement": "Age coefficient on ka βAge", "setting": "[7]; final model, exponential model, Estimate (RSE%)", "result": "−0.0404 (20.5)"}, {"measurement": "Inter-occasion variability (IOV) of absorption lag time Tlag", "setting": "[7]; [12]", "result": "0.645 (18.3)"}, {"measurement": "Inter-patient variability (IIV) of absorption lag time Tlag", "setting": "[7]; [12]", "result": "0.524 (27.7)"}, {"measurement": "Inter-patient variability (IIV) of peripheral clearance Q/F", "setting": "[7]; [12]", "result": "0.536 (20.2)"}, {"measurement": "Central volume V1/F, population estimate", "setting": "[7]; final model, typical patient, no acid reducer, Estimate (RSE%)", "result": "54.3 L and 54.3 (18.4) L"}, {"measurement": "Lower V1/F in patients receiving concomitant acid reducers", "setting": "[7]; histamine H2 antagonists or proton pump inhibitors, p=0.018", "result": "~1.7", "unit": "fold"}, {"measurement": "AUC(0-t)", "setting": "[7]; mean", "result": 20.7, "unit": "µM·h"}, {"measurement": "AUC(0-t)", "setting": "[7]; range", "result": "9.48 to 68.5", "unit": "µM·h"}, {"measurement": "clearance", "setting": "[7]; all patients", "result": 642, "unit": "mL/min"}, {"measurement": "clearance", "setting": "[7]; with acid reducers", "result": 435, "unit": "mL/min"}, {"measurement": "clearance", "setting": "[7]; without acid reducers", "result": 980, "unit": "mL/min"}, {"measurement": "Accumulation at steady state", "setting": "[7]; in vivo", "result": "minimal accumulation"}, {"measurement": "IIV of absorption lag time Tlag, non-parametric bootstraps mean", "setting": "[7]; [13]", "result": 0.496}, {"measurement": "IIV of absorption rate constant ka, non-parametric bootstraps mean", "setting": "[7]; [13]", "result": 0.091}, {"measurement": "IIV of central volume V1/F, non-parametric bootstraps mean", "setting": "[7]; [13]", "result": 0.182}, {"measurement": "IOV of absorption lag time Tlag, non-parametric bootstraps mean", "setting": "[7]; [13]", "result": 0.591}, {"measurement": "IOV of central volume V1/F, non-parametric bootstraps mean", "setting": "[7]; [13]", "result": 0.860}]}
{"smiles": "COc1ccc2[nH]c([S+]([O-])Cc3ncc(C)c(OC)c3C)nc2c1", "note": "(stereo not shown) [omeprazole]", "values": [{"measurement": "CYP3A4 inhibition", "setting": "[8]", "result": "weak CYP3A4 inhibitors"}]}
{"smiles": "COc1ccnc(C[S+]([O-])c2nc3ccc(OC(F)F)cc3[nH]2)c1OC", "note": "(stereo not shown) [pantoprazole]", "values": [{"measurement": "CYP3A4 inhibition", "setting": "[8]", "result": "weak CYP3A4 inhibitors"}]}
{"smiles": "CNC(=C[N+](=O)[O-])NCCSCc1ccc(CN(C)C)o1", "note": "[ranitidine]", "values": [{"measurement": "CYP3A4 inhibition", "setting": "[8]", "result": "weak CYP3A4 inhibitors"}]}
